These results are taken from patent publication US6808877B2, “Ligands for FPR class receptors that induce a host immune response to a pathogen or inhibit HIV infection” (priority 2000, dated 2004).

Data set [1] deals with CCR5. Type of data set: cell-based, human. The following applies: HOS/CD4/CCR5 cells co-expressing FPR.
Data set [2] concerns CCR5. Put plainly: 125I-MIP-1β binding to monocytes. More on the design: species or system human. How it is done:
Rocky Hill, N.J.). After incubation, the cells were washed with DPBS and centrifuged through a 10% sucrose/DPBS cushion. The tips of tubes containing cell pellets were cut and the cell-associated radioactivity was determined in a gamma counter. The results were presented as counts per minute (cpm) on 2×10^6 monocyte and were representative of at least three experiments performed.

The test system of data set [3] is monocytes. The data set is described as follows: Ca2+ mobilization of monocytes in response to chemokines after preincubation (heterologous desensitization). The conditions noted are these: 60 min, 37° C. The class given is cell-based, human. On the procedure:
Calcium mobilization was measured by incubating monocytes (2×10^7/ml) in loading medium (DMEM, 10% FCS) with 5 μM Fura-2 AM (Molecular Probes, Eugene, Oreg.) for 30 min at room temperature in the dark. The dye-loaded cells were washed 3 times and resuspended in saline buffer (138 mM NaCl, 6 mM KCl, 1 mM CaCl2, 10 mM Hepes pH 7.4, 5 mM glucose, 0.1% BSA). The cells were then transferred into quartz cuvettes (2×10^6 cells in 2 ml) which were placed in a luminescence spectrometer (LS-50B, Perkin-Elmer, Beaconsfield, UK). Stimulants at different concentrations were added in a volume of 20 μl to each cuvette at the indicated time points. The ratio of fluorescence at 340 and 380 nm was calculated using a FL-WinLab program (Perkin Elmer). To examine the effect of fMLP, monocytes were preincubated with 10^−6 M fMLP or with medium alone for 60 min at 37° C. The cells were thoroughly washed and then were stained with Fura-2 for the calcium mobilization desensitization. The results are representative of at least three experiments performed.
Calcium mobilization was measured by incubating 2×10^7/ml cells in loading medium (DMEM, 10% FBS) with 5 μM Fura-2 AM (Molecular Probes, Eugene, Oreg.) for 30 min at room temperature in the dark. The dye-loaded cells were washed 3 times with loading medium and resuspended in saline buffer [138 mM NaCl, 6 mM KCl, 1 mM CaCl2, 10 mM HEPES (pH 7.4), 5 mM Glucose, 0.1% BSA] at a concentration of 1×10^6/ml. The cells were then transferred into quartz cuvettes (2 ml) which were placed in a luminescence spectrometer (LS-50B, Perkin-Elmer, Beaconsfield, England). Stimulants at different concentrations were added in a volume of 20 μl to each cuvette at the indicated time points. The ratio of fluorescence at 340 and 380 nm wavelength was calculated using a FL WinLab program (Perkin-Elmer).
On the technique in general: Calcium assays in cells follow changes in intracellular calcium, usually with a dye or a luminescent sensor.

Data set [4] deals with CCR5. The data set is described as follows: Surface expression of CCR5 on monocytes by flow cytometry. Type of data set: cell-based, human. The following applies: FITC-anti-CCR5 2D7. On the procedure:
The change of surface expression of CCR5 on monocytes was monitored by FACS analyses (courtesy of L. […] The cells were then washed twice with DPBS containing 2% BSA and fixed with 1% Paraformaldehyde (Sigma). The fluorescence was measured by flow cytometer (Becton Dickinson, San Jose, Calif.). Results are presented as the percentage of cells stained with anti-CCR5 antibody.

The next data set concerns HIV-1BAL-env. Put plainly: HIV-1 env fusion with human blood monocytes. Type of data set: cell-based.
The next data set has as its system HIVJRFL. The class given is cell-based, HIV-1. The following applies: peripheral blood monocyte/macrophages.
For data set [5], the system named is monocyte tropic strains of HIV-1. Type of data set: cell-based. The following applies: FPR-transfected HOS cells.
Another data set concerns the target T1, FPRL1 (Homo sapiens, UniProt P25090).
T1 construct: expressed in transfected cells; host or cells: HEK 293
T1 sequence (P25090 1-351): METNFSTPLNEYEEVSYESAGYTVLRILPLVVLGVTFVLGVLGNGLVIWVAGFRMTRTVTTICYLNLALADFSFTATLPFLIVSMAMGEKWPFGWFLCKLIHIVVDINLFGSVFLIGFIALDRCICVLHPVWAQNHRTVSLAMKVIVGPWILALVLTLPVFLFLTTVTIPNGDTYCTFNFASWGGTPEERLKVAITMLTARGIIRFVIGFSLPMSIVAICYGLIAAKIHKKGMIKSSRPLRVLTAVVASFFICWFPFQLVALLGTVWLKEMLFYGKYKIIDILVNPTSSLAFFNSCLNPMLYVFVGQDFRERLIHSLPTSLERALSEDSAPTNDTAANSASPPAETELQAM
The class given is cell-based.

The test system of data set [6] is parental or mock transfected cells. The data set is described as follows: Ca2+ mobilization in parental or mock transfected rat basophil cell line and HEK 293 cells. The class given is cell-based.
The subject of the next data set is macrophages. The following applies: compared to cells treated with medium alone.
Data set [7] relates to monocytes. Put plainly: Monocyte chemotaxis, 48-well micro-chemotaxis chamber. The following applies: human monocytes. The class given is cell-based, human.
In another data set the test system is neutrophils. The data set is described as follows: Neutrophil chemotaxis, 48-well micro-chemotaxis chamber. The conditions noted are these: human neutrophils. Type of data set: cell-based.
The next data set deals with T lymphocytes. Put plainly: T lymphocyte chemotaxis. Type of data set: cell-based, human.
The target in the next data set is T2, FPR (Homo sapiens, UniProt P21462).
T2 construct: H. Ali and R. Snyderman (Duke University); host or cells: RBL-2H3 rat basophilic leukemia cells
T2 sequence (P21462 1-350): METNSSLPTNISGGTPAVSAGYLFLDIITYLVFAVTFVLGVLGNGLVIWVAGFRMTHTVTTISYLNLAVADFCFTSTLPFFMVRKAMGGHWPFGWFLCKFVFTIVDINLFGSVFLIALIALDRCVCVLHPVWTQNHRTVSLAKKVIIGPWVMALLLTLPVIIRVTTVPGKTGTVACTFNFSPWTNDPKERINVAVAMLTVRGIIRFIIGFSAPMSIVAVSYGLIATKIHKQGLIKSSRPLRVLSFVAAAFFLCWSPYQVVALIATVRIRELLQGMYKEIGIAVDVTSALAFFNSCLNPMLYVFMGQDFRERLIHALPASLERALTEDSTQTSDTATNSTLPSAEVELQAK
Put plainly: Migration of ETFR cells. The class given is cell-based. The following applies: ETFR cells (overexpressing FPR).

A further data set concerns the target CXCR4 (Homo sapiens, UniProt P61073). The data set is described as follows: Interaction with CXCR4.

Like-named read-outs stand apart in the source and are kept apart here.

Chain of CXCR4 (P61073 whole entry): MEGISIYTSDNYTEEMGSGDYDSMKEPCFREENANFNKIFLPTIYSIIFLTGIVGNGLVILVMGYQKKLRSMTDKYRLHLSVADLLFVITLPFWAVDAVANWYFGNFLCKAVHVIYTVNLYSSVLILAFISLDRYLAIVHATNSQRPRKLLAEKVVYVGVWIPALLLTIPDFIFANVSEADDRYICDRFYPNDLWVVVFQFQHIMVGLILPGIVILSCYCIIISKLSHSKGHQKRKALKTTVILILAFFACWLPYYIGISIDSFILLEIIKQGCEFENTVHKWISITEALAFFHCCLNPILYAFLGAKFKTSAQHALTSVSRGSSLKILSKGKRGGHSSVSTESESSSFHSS

With `CSCC[C@H](NC=O)C(=O)N[C@@H](CC(C)C)C(=O)N[C@@H](Cc1ccccc1)C(=O)O` [fMLP, N-formyl-methionyl-leucyl-phenylalanine], the “phosphorylation of CCR5” value with CCR5 [1] is on record as “induced an increase in phosphorylation of CCR5”. Besides, in the data set on CCR5 [2] (monocytes treated for 1 h), the “specific binding for 125I-MIP-1β after treatment” value is “markedly reduced”. Also, the “binding of 125I-MIP-1β after treatment” value with CCR5 [2] (monocytes treated for up to 30 min at 37° C.) is “only a marginally reduced binding”. In the data set with CCR5 [2] (monocytes, high concentrations as competitor), the “displacement of 125I-MIP-1β binding” value is reported as “did not displace any”. In addition, in the data set with monocytes [3] (fMLP 10^−6 M), the “Ca2+ flux in response to RANTES and MIP-1α after pretreatment” value is “reduced Ca^2+ flux”. For the same compound, the “expression of CCR5 on the cell surface” value with CCR5 [4] is given as “markedly downregulated”. The HIV-1 env fusion entry in the data set on HIV-1BAL-env is “inhibition of HIV-1 env fusion with blood monocytes”. Moreover, the “fusion and infection, syncytia formation and p24 production” value is “significantly reduced the fusion and infection” in the data set with HIVJRFL; “significantly reduced the fusion and infection” in data set [5]. At FPRL1, the migration / chemotaxis result was “failed to migrate”. Besides, the “Ca2+ mobilization” value in [6] is recorded as “did not induce Ca^2+ mobilization”. Besides, in the data set with macrophages, the viability of macrophages entry is on record as “did not affect the viability of macrophages”.

With “TRPNYNKRKRIHIGPGRAFYTTKNIIGTIRQAH-NH2 [V3 peptide]”, the “cell response (Ca2+) to MCP-1 and fMLP after preincubation” value in the data set with monocytes [3] (1.5 μM) is listed as “minimally affected”. For the same compound, in the data set with monocytes [3] (1.5 μM), the “cell response (Ca2+) to RANTES and SDF-1α after preincubation” value is “significantly reduced”. Further, the “chemotactic activity / migration” value in the data set with monocytes [7] and with neutrophils was “potent chemoattractant” each time. The chemotactic activity result with T lymphocytes is listed as “weak chemoattractant”. For the same compound, the migration / chemotaxis entry with FPRL1 (FPRL1/293 cells) was “induced both Ca^2+ mobilization and chemotaxis”; with FPR it was “low level of chemotaxis response”. Also, in the data set with CXCR4, the “interaction with CXCR4” value is “did not interact with CXCR4”.
